Read-outs that look alike come from different tables or passages of the source.
Experiments:
Type in all cases: biochemical
[1] = target: T1, hCES1A (Homo sapiens, UniProt P23141); assay: Inhibition of hCES1A-mediated NLMe hydrolysis in human liver microsomes
T1 construct: tissue Bioreclamation IVT lot No. X008067; host or cells: pooled human liver microsomes from 50 donors
T1 sequence (P23141 18-567): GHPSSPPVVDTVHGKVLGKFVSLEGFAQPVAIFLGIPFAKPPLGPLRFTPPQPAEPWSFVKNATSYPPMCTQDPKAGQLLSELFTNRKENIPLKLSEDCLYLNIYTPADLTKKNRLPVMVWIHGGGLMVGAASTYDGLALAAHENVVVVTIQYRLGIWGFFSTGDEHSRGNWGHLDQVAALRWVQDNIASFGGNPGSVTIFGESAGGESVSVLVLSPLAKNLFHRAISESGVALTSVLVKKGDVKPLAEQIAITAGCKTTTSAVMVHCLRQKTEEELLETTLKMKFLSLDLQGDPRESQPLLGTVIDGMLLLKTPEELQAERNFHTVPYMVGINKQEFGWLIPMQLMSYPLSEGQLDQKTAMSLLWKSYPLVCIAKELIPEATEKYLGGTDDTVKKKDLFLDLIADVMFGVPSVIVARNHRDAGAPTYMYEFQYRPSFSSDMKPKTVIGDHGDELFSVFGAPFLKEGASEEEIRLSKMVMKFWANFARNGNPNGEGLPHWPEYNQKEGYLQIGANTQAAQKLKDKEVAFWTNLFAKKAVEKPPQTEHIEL
Description: N-Alkylated D-luciferin methyl ester (NLMe), a Specific probe for hCES1A[45], was used for assessing the inhibitory effects for triterpenoids, and BNPP was used as a positive inhibitor of hCES1A. […] Then NLMe (2 µL, 0.15 mM) was added to start the reaction. After shaking the reaction in 37 °C incubator for 10 min, 50 µL of reaction solution was removed and mixed with LDR (50 µL) to terminate the reaction. A multi-mode microplate reader was used to detect the luminescence signal of NL (the hydrolysed metabolite of NLMe). The luminescence product of NL was measured at 580 nm (gain: 140). The final volume ratio of DMSO was less than 1% (V/V).
(§1) Subsequently, various concentrations of substrates (selected according to Km) and different concentrations of inhibitors were used to determine the corresponding reaction rate, and the second slope graph of the Lineweaver–Burk diagram was used as a function of the inhibitor to calculate the corresponding inhibition constant (Ki) value. All kinetic data were fitted by the following kinetic equations (a–c), for competitive (a), non-competitive (b) and mixed inhibition (c): (a) V=(VmaxS)/[Km(1+I/Ki)+S] (b) V=(VmaxS)/[(Km+S)×(1+I/Ki)] (c) V=(VmaxS)/[(Km+S)×(1+I/αKi)] where V is the hydrolytic velocity of the reaction, Vmax is the maximum velocity. S and I are substrate (4-MUO, NLMe) and inhibitor (compound 39/41) concentrations, respectively. Ki is the inhibition constant of the tested inhibitor against the target PL and hCES1A; Km is the Michaelis constant (the substrate concentration at half of the Vmax).
All measurements were made in triplicate and the data obtained in the experiment were shown as mean ± SD. The IC50 and Ki values of the compounds with strong inhibitory effect were evaluated by nonlinear regression with graphpad prism 7.0 software (GraphPad Software, Inc., La Jolla, CA).

[2] = target: T2, hCES2A (Homo sapiens, UniProt O00748); assay: Inhibition of hCES2A-mediated FD hydrolysis
T2 sequence (O00748 27-559): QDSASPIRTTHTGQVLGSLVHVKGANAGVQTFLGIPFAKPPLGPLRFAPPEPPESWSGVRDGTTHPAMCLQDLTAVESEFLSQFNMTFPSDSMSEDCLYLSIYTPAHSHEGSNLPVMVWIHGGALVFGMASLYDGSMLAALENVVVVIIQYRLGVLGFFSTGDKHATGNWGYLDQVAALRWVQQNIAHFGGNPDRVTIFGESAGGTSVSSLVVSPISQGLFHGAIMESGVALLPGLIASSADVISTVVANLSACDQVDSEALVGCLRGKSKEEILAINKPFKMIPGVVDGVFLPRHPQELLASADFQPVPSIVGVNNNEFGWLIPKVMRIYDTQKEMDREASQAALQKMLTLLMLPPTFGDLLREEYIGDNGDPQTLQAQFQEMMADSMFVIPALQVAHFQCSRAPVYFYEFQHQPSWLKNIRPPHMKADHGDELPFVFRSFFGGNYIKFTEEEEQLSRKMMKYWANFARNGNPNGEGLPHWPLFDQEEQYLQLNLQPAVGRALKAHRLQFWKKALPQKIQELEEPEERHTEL
Text: […] (FD) was used as the hCES2A specific probe substrate to assay the inhibitory effect of natural triterpenoids on hCES2A. The entire detailed operation process refers to the previously reported method, and finally the FD mixture was put into the multi-mode microplate reader for analysis and detection.

[3] = target: T3, Pancreatic lipase (PL) (Sus scrofa, UniProt P00591); assay: Inhibition of PL-mediated 4-MUO hydrolysis; conditions: 4-MUO substrate, mean ± SD (n = 3)
T3 construct: purchased Sigma Aldrich type II, Lot.SLBN9099V
T3 sequence (P00591 1-450): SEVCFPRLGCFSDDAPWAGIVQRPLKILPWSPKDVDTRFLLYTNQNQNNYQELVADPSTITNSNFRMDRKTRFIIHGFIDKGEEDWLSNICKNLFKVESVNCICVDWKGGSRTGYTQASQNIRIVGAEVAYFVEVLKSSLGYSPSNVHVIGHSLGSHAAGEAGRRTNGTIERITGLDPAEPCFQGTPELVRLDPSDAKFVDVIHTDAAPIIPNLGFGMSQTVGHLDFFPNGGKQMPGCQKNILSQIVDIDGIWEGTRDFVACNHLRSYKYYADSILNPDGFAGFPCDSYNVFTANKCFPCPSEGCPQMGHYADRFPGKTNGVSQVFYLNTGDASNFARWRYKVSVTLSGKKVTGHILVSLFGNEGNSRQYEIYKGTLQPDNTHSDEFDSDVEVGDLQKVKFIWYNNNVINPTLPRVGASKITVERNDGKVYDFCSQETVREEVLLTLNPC
Description: In addition, the background fluorescence in the absence of an enzyme source (PL) (add the same amount of citrate-Na2HPO4 buffer) was measured. […] Then start the reaction by adding 2 µL of 4-MUO probe (3 µM, final concentration). The fluorescence signal of 4-MU (hydrolytic metabolite) was detected by multi-mode microplate reader (SpectraMax M4, Molecular Devices, Urstein, Austria) with continuous oscillation for 20 min and recorded and analysed at 60 s intervals. The excitation wavelength and emission wavelength of 4-MU were set at 340 nm and 460 nm, respectively, and the gain value was 500.
as §1
All measurements were made in triplicate and the data obtained in the experiment were shown as mean ± SD.

[4] = NLMe substrate, HLM, mean ± SD (n = 3), read-out: IC50 (µM) hCES1A

SMILES | IC50 [3] [µM] | IC50 [1, 4] [µM] | IC50 ([2]; FD substrate, mean ± SD (n = 3), read-out: IC50 (µM) hCES2A) [µM] | IC50 [1] [µM] | IC50 [2] [µM]
C[C@H]1[C@H](C)CC[C@]2(C(=O)O)CC[C@]3(C)C(=CC[C@@H]4[C@@]5(C)C[C@@H](O)[C@H](O)[C@@](C)(CO)[C@@H]5CC[C@]43C)[C@H]12 [Compound 7, asiatic acid] | 12.9 ± 1.87 |  |  | 0.17 ± 0.02 | 65.1 ± 6.41
CC1CCC2(C(=O)O)CCC3(C)C(=CCC4C5(C)C=C(O)C(=O)C(C)(C)C5CCC43C)C2C1C (centres unmarked) [Compound 43] | 5.21 ± 1.24 | 0.032 ± 0.003 |  |  | 
CC1(C)CCC2(CO)CCC3(C)C(=CCC4C5(C)CCC(O)C(C)(C)C5CCC43C)C2C1 (centres unmarked) [Compound 37] | 11.8 ± 1.6 | 4.11 ± 0.77 |  |  | 
CC1(C)CC[C@]2(C(=O)O)CC[C@]3(C)C(=CC[C@@H]4[C@@]5(C)CC[C@H](O)C(C)(C)[C@@H]5CC[C@]43C)[C@@H]2C1 [Compound 1, oleanolic acid] | 8.63 ± 0.84 | 0.04 ± 0.003 |  |  | 
C[C@H]1[C@H](C)CC[C@]2(C(=O)O)CC[C@]3(C)C(=CC[C@@H]4[C@@]5(C)C[C@@H](O)[C@H](O)C(C)(C)[C@@H]5CC[C@]43C)[C@H]12 [Compound 6, corosolic acid] | 12.8 ± 1.44 |  |  | 0.34 ± 0.04 | 
CC1(C)CC[C@]2(C(=O)O)CC[C@]3(C)C(=CC[C@@H]4[C@@]5(C)CC[C@H](O)[C@@](C)(CO)[C@@H]5CC[C@]43C)[C@@H]2C1 [Compound 3, hederagenin] | 13 ± 2.03 | 0.04 ± 0.004 | 9.22 ± 1.43 |  | 
O=[N+]([O-])c1ccc(OP(=O)(O)Oc2ccc([N+](=O)[O-])cc2)cc1 [Compound 29, Bis-p-nitrophenyl phosphate, reference compound] | > 100 | 0.36 ± 0.03 |  |  | 
CC1(C)CCC2(C(=O)O)CCC3(C)C(=CCC4C5(C)CCC(=O)C(C)(C)C5CCC43C)C2C1 (centres unmarked) [Compound 30] | 7.51 ± 1.08 | 0.047 ± 0.003 |  |  | 
CC(=O)OC1CCC2(C)C(CCC3(C)C2CC=C2C4CC(C)(C)CCC4(C(N)=O)CCC23C)C1(C)C (centres unmarked) [Compound 32] | 7.02 ± 0.59 | 0.11 ± 0.013 |  |  | 
C=C(C)[C@@H]1CC[C@]2(CO)CC[C@]3(C)[C@H](CC[C@@H]4[C@@]5(C)CC[C@H](O)C(C)(C)[C@@H]5CC[C@]43C)[C@@H]12 [Compound 12, betulin] | 7.47 ± 1.68 |  |  | > 100 | 

The next lines start with results.

IC50 [3] [µM] | IC50 [1, 4] [µM] | IC50 ([2]; FD substrate, mean ± SD (n = 3), read-out: IC50 (µM) hCES2A) [µM] | SMILES | IC50 [1] [µM] | IC50 [2] [µM]
> 100 | 1.82 ± 0.29 |  | CCCCCC(=O)OC1CCC2(C)C(CCC3(C)C2CC=C2C4CC(C)(C)CCC4(C(=O)O)CCC23C)C1(C)C (centres unmarked) [Compound 35] |  | 
0.42 ± 0.05 | > 100 |  | C[C@H]1[C@H](C)CC[C@]2(C)CC[C@]3(C)C(=CC[C@@H]4[C@@]5(C)CC[C@@H](O)[C@](C)(C(=O)O)[C@@H]5CC[C@]43C)[C@H]12 [Compound 8, β-Boswellic acid] |  | 
> 100 | 0.24 ± 0.049 |  | CCCC(=O)OC1CCC2(C)C(CCC3(C)C2CC=C2C4CC(C)(C)CCC4(C(=O)O)CCC23C)C1(C)C (centres unmarked) [Compound 34] |  | 
30.6 ± 3.58 | 0.856 ± 0.15 |  | COC(=O)C12CCC(C)(C)CC1C1=CCC3C4(C)CCC(O)C(C)(C)C4CCC3(C)C1(C)CC2 (centres unmarked) [Compound 36] |  | 
6.94 ± 1.37 | 0.93 ± 0.18 |  | CC1CCC2(C(=O)O)CCC3(C)C(=CCC4C5(C)CCC(=O)C(C)(C)C5CCC43C)C2C1C (centres unmarked) [Compound 40] |  | 

— publication PMC8812735, “Discovery of triterpenoids as potent dual inhibitors of pancreatic lipase and human carboxylesterase 1” (Journal of Enzyme Inhibition and Medicinal Chemistry, 2022)
